1 compound from BindingDB's records for doi:10.1021/acs.jmedchem.6b01247 (University of Chinese Academy of Sciences, 2016) can be followed below.

A short description of experiment [1]: Inhibition of Smo in mouse Shh Light2 cells assessed as inhibition of SAG-induced Hh pathway activity by measuring SAG-EC50 at 50 nM measured after 36 hrs by Gli-luciferase reporter gene assay (Rvb = 2.93 nM). Background: Reporter assays use an easily measured gene product as a stand-in for the process of interest.
The nature of experiment [2]: Inhibition of Smo in mouse Shh Light2 cells assessed as inhibition of SAG-induced Hh pathway activity by measuring SAG-EC50 at 100 nM measured after 36 hrs by Gli-luciferase reporter gene assay (Rvb = 2.93 nM).
The nature of experiment [3]: Inhibition of Smo in mouse Shh Light2 cells assessed as inhibition of SAG-induced Hh pathway activity by measuring SAG-EC50 at 500 nM measured after 36 hrs by Gli-luciferase reporter gene assay (Rvb = 2.93 nM).

What is called EC50 is the concentration giving half of the maximal effect.

Turning to `Cc1ccc2c(n1)[C@H]([C@@H](C)C(=O)Nc1ccc(Cl)c(-c3nc4ccccc4n3C)c1)CC[C@H]2C`, the 50% effective concentration (EC50) came to 0.024 µM in experiment [1], 0.047 µM in experiment [2] and 0.137 µM in experiment [3].
